Experimental data: US9949475B2, “Composition comprising active ingredient, oil and ionic liquid” (priority 2011, dated 2018)
≈ marks a conversion by molar mass, not a printed value. Like-named read-outs stand apart in the source and are kept apart here.

Assay: Solubility of agrochemical active ingredient in oil comprising ionic liquid
Type: physicochemical
Settings: for solubility: 21 °C, thermodynamic from solid
Source text: Alternatively, the oil, which comprised the ionic liquid, was saturated with the active ingredient and the soluble fraction of active ingredient was quantified by means of HPLC. In the first line of the tables, in each case the weight ratios of oil to IL are given.

SMILES: Cn1cc(C(=O)Nc2ccccc2-c2cc(F)c(F)c(F)c2)c(C(F)F)n1 [fluxapyroxad, 3-(difluoromethyl)-1-methyl-N-(3′,4′,5′-trifluorobiphenyl-2-yl)pyrazole-4-carboxamide]
- Solubility of fluxapyroxad with Agnique AMD 12 ® (N,N-dimethyldodecanamide, lauryl N,N-dimethylamide) as oil (21° C., Oil/IL 20/80 weight ratio, IL N-butyl-N′-methylimidazolium acetate): 43.1 mg/mL
- Solubility of fluxapyroxad with Agnique AMD 12 ® (N,N-dimethyldodecanamide, lauryl N,N-dimethylamide) as oil (21° C., Oil/IL 20/80 weight ratio, IL N-ethyl-N′-methylimidazolium acetate): 39.5 mg/mL
- Solubility of fluxapyroxad with Agnique AMD 12 ® (N,N-dimethyldodecanamide, lauryl N,N-dimethylamide) as oil (21° C., Oil/IL 20/80 weight ratio, IL N-ethyl-N′-methylimidazolium isononanoate): 38.4 mg/mL
- Solubility of fluxapyroxad with Agnique AMD 12 ® (N,N-dimethyldodecanamide, lauryl N,N-dimethylamide) as oil (21° C., Oil/IL 20/80 weight ratio, IL Tetrabutylammonium [2-(2-methoxyethoxy)ethoxy]acetate): 37.5 mg/mL
- Solubility of fluxapyroxad with Agnique AMD 12 ® (N,N-dimethyldodecanamide, lauryl N,N-dimethylamide) as oil (21° C., Oil/IL 60/40 weight ratio, IL N-butyl-N′-methylimidazolium acetate): 55.9 mg/mL
- Solubility of fluxapyroxad with Agnique AMD 12 ® (N,N-dimethyldodecanamide, lauryl N,N-dimethylamide) as oil (21° C., Oil/IL 60/40 weight ratio, IL N-ethyl-N′-methylimidazolium acetate): 40.4 mg/mL
- Solubility of fluxapyroxad with Agnique AMD 12 ® (N,N-dimethyldodecanamide, lauryl N,N-dimethylamide) as oil (21° C., Oil/IL 60/40 weight ratio, IL N-ethyl-N′-methylimidazolium isononanoate): 48.1 mg/mL
- Solubility of fluxapyroxad with Agnique AMD 12 ® (N,N-dimethyldodecanamide, lauryl N,N-dimethylamide) as oil (21° C., Oil/IL 60/40 weight ratio, IL Tetrabutylammonium [2-(2-methoxyethoxy)ethoxy]acetate): 33.1 mg/mL
- Solubility of fluxapyroxad with Agnique AMD 12 ® (N,N-dimethyldodecanamide, lauryl N,N-dimethylamide) as oil (21° C., Oil/IL 90/10 weight ratio, IL N-ethyl-N′-methylimidazolium acetate): 38.2 mg/mL
- Solubility of fluxapyroxad with Agnique AMD 12 ® (N,N-dimethyldodecanamide, lauryl N,N-dimethylamide) as oil (21° C., Oil/IL 90/10 weight ratio, IL Tetrabutylammonium [2-(2-methoxyethoxy)ethoxy]acetate): 29.7 mg/mL
- solubility (oil or lipid, 21° C., Oil/IL 20/80 weight ratio, IL N-ethyl-N′-ethylimidazolium propionate, read-out: Solubility of fluxapyroxad with Solvesso ® 200 ND as oil): 39.4 mg/mL
- solubility (oil or lipid, 21° C., Oil/IL 20/80 weight ratio, IL N-ethyl-N′-methylimidazolium isononanoate, read-out: Solubility of fluxapyroxad with Solvesso ® 200 ND as oil): 28.6 mg/mL
- solubility (oil or lipid, 21° C., Oil/IL 60/40 weight ratio, IL N-ethyl-N′-ethylimidazolium propionate, read-out: Solubility of fluxapyroxad with Solvesso ® 200 ND as oil): 50.5 mg/mL
- solubility (oil or lipid, 21° C., Oil/IL 60/40 weight ratio, IL N-ethyl-N′-methylimidazolium isononanoate, read-out: Solubility of fluxapyroxad with Solvesso ® 200 ND as oil): 42.9 mg/mL
- solubility (oil or lipid, 21° C., Oil/IL 90/10 weight ratio, IL N-ethyl-N′-ethylimidazolium propionate, read-out: Solubility of fluxapyroxad with Solvesso ® 200 ND as oil): 21.3 mg/mL
- solubility (oil or lipid, 21° C., Oil/IL 90/10 weight ratio, IL N-ethyl-N′-methylimidazolium isononanoate, read-out: Solubility of fluxapyroxad with Solvesso ® 200 ND as oil): 15.3 mg/mL
- solubility (oil or lipid, 21° C., Oil/IL 90/10 weight ratio, IL Tetrabutylammonium [2-(2-methoxyethoxy)ethoxy]acetate, read-out: Solubility of fluxapyroxad with Solvesso ® 200 ND as oil): 18.4 mg/mL
- solubility (oil or lipid, Solubility of fluxapyroxad with Agnique AMD 12 ® (N,N-dimethyldodecanamide, lauryl N,N-dimethylamide) as oil): 25.9 mg/mL (≈ 67.9 mM)
- solubility (organic solvent or mixture, 21° C., 100 IL (no oil), IL N-ethyl-N′-methylimidazolium isononanoate, read-out: Solubility of fluxapyroxad with Cetiol ® B as oil): 9.5 mg/mL (≈ 24.9 mM)
- solubility (organic solvent or mixture, 21° C., 100 IL (no oil), IL N-ethyl-N′-methylimidazolium isononanoate, read-out: Solubility of fluxapyroxad with Solvesso ® 200 ND as oil): 9.5 mg/mL (≈ 24.9 mM)
- solubility (organic solvent or mixture, 21° C., 100 IL (no oil), IL Tetrabutylammonium [2-(2-methoxyethoxy)ethoxy]acetate, read-out: Solubility of fluxapyroxad with Solvesso ® 200 ND as oil): 9.5 mg/mL (≈ 24.9 mM)
- solubility (organic solvent or mixture, Solubility of fluxapyroxad with Agnique AMD 12 ® (N,N-dimethyldodecanamide, lauryl N,N-dimethylamide) as oil): 5 mg/mL (≈ 13.1 mM)
- solubility (organic solvent or mixture, Solubility of fluxapyroxad with Cetiol ® B as oil): 5 mg/mL (≈ 13.1 mM)
- solubility (organic solvent or mixture, Solubility of fluxapyroxad with Solvesso ® 200 ND as oil): 5 mg/mL (≈ 13.1 mM)
- solubility (Cetiol B / N-ethyl-N′-methylimidazolium isononanoate mixture, oil or lipid, 21° C., Oil/IL 20/80 weight ratio, IL N-ethyl-N′-methylimidazolium isononanoate, read-out: Solubility of fluxapyroxad with Cetiol ® B as oil): 48.7 mg/mL
- solubility (Cetiol B / N-ethyl-N′-methylimidazolium isononanoate mixture, oil or lipid, 21° C., Oil/IL 60/40 weight ratio, IL N-ethyl-N′-methylimidazolium isononanoate, read-out: Solubility of fluxapyroxad with Cetiol ® B as oil): 46.7 mg/mL
- solubility (Cetiol B / N-ethyl-N′-methylimidazolium isononanoate mixture, oil or lipid, 21° C., Oil/IL 90/10 weight ratio, IL N-ethyl-N′-methylimidazolium isononanoate, read-out: Solubility of fluxapyroxad with Cetiol ® B as oil): 20.7 mg/mL
- solubility (Cetiol B / cholinium octanoate mixture, oil or lipid, 21° C., Oil/IL 20/80 weight ratio, IL Cholinium octanoate, read-out: Solubility of fluxapyroxad with Cetiol ® B as oil): 34.2 mg/mL
- solubility (Cetiol B oil comprising ionic liquid, oil or lipid, 21° C., Oil/IL 20/80 weight ratio, IL N-butyl-N′-methylimidazolium acetate, read-out: Solubility of fluxapyroxad with Cetiol ® B as oil): 54.9 mg/mL
- solubility (Cetiol B oil comprising ionic liquid, oil or lipid, 21° C., Oil/IL 20/80 weight ratio, IL N-butyl-N′-methylimidazolium dimethylphosphate, read-out: Solubility of fluxapyroxad with Cetiol ® B as oil): 44.1 mg/mL
- solubility (Cetiol B oil comprising ionic liquid, oil or lipid, 21° C., Oil/IL 20/80 weight ratio, IL N-ethyl-N′-ethylimidazolium propionate, read-out: Solubility of fluxapyroxad with Cetiol ® B as oil): 60.2 mg/mL
- solubility (Cetiol B oil comprising ionic liquid, oil or lipid, 21° C., Oil/IL 20/80 weight ratio, IL N-ethyl-N′-methylimidazolium acetate, read-out: Solubility of fluxapyroxad with Cetiol ® B as oil): 56.2 mg/mL
- solubility (Cetiol B oil comprising ionic liquid, oil or lipid, 21° C., Oil/IL 20/80 weight ratio, IL N-ethyl-N′-methylimidazolium dibutylphosphate, read-out: Solubility of fluxapyroxad with Cetiol ® B as oil): 16.8 mg/mL
- solubility (Cetiol B oil comprising ionic liquid, oil or lipid, 21° C., Oil/IL 20/80 weight ratio, IL N-ethyl-N′-methylimidazolium heptanoate, read-out: Solubility of fluxapyroxad with Cetiol ® B as oil): 28.4 mg/mL
- solubility (Cetiol B oil comprising ionic liquid, oil or lipid, 21° C., Oil/IL 20/80 weight ratio, IL N-ethyl-N′-methylimidazolium octanoate, read-out: Solubility of fluxapyroxad with Cetiol ® B as oil): 25.7 mg/mL
- solubility (Cetiol B oil comprising ionic liquid, oil or lipid, 21° C., Oil/IL 20/80 weight ratio, IL N-propyl-N′-propylimidazolium acetate, read-out: Solubility of fluxapyroxad with Cetiol ® B as oil): 59.2 mg/mL
- solubility (Cetiol B oil comprising ionic liquid, oil or lipid, 21° C., Oil/IL 20/80 weight ratio, IL Tetrabutylammonium [2-(2-methoxyethoxy)ethoxy]acetate, read-out: Solubility of fluxapyroxad with Cetiol ® B as oil): 38.3 mg/mL
- solubility (Cetiol B oil comprising ionic liquid, oil or lipid, 21° C., Oil/IL 60/40 weight ratio, IL Cholinium octanoate, read-out: Solubility of fluxapyroxad with Cetiol ® B as oil): 33.6 mg/mL
- solubility (Cetiol B oil comprising ionic liquid, oil or lipid, 21° C., Oil/IL 60/40 weight ratio, IL N-butyl-N′-methylimidazolium acetate, read-out: Solubility of fluxapyroxad with Cetiol ® B as oil): 50.6 mg/mL
